Experimental data: PubChem BioAssay (NCI)
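A five-concentration, 48-hour dose response in 96-well plates underlies each endpoint, interpolated linearly between surrounding concentrations. TGI is the concentration that stops growth completely.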

Columns and labels:
Test in all cases: NCI anticancer screen, dose series, 48 h
[1] = test system: EKVX NSCLC
[2] = test system: UO-31 renal
[3] = test system: UACC-62 melanoma
[4] = test system: NCI/ADR-RES ovarian
[5] = test system: OVCAR-5 ovarian
[6] = test system: ACHN renal
[7] = test system: KM12 colon
[8] = test system: RPMI-8226 leukemia
[9] = test system: SR leukemia
[10] = test system: UACC-257 melanoma
[11] = test system: MOLT-4 leukemia
[12] = test system: SK-MEL-2 melanoma
[13] = test system: SNB-75 CNS
[14] = test system: RXF 393 renal
[15] = test system: HOP-92 NSCLC
[16] = test system: HCT-116 colon
[17] = test system: U251 CNS
[18] = test system: TK-10 renal
[19] = test system: SF-268 CNS

SMILES | TGI [1] | TGI [2] | TGI [3] | TGI [4] | TGI [5] | TGI [6] | TGI [7] | TGI [8] | TGI [9] | TGI [10] | TGI [11] | TGI [12] | TGI [13] | TGI [14] | TGI [15] | TGI [16] | TGI [17] | TGI [18] | TGI [19]
CCCCC1=NNC(=O)C1 | > 100 µM | > 100 µM | > 100 µM | > 100 µM | > 100 µM | > 100 µM | > 100 µM | > 100 µM | > 100 µM | > 100 µM | > 100 µM | > 100 µM | > 100 µM | > 100 µM | > 100 µM | > 100 µM | > 100 µM |  | 
CC(C)CC1C(=O)NCCC(NC(=O)C(Cc2ccc(OC(C)(C)C)cc2)NC(=O)OC(C)(C)C)C(=O)NC(Cc2ccccc2)C(=O)NC(Cc2ccccc2)NC1=O (configuration not stated) | 39.1 µM | > 100 µM | 31.1 µM | > 100 µM | 21.2 µM | 23.3 µM | > 100 µM | 54.4 µM | 72.1 µM | 26.2 µM | 3.48 µM |  |  | 27.2 µM | 32.1 µM | 17.4 µM | 27.2 µM | 33.8 µM | 36.1 µM
Oc1c(C2=NNC(c3ccc(Cl)cc3Cl)C2)ccc2ccccc12 (configuration not stated) |  | > 100 µM | > 100 µM | 83.3 µM | > 100 µM | > 100 µM | > 100 µM | > 100 µM | 35 µM | > 100 µM | 31.4 µM | > 100 µM | > 100 µM | > 100 µM | > 100 µM | > 100 µM | > 100 µM | > 100 µM | > 100 µM
CC(C)C(=O)[C@@]1(C)SC[C@H]2CCN=C21 | > 100 µM | > 100 µM | > 100 µM | > 100 µM | > 100 µM | > 100 µM | > 100 µM | > 100 µM | > 100 µM | > 100 µM | > 100 µM |  |  | > 100 µM | 75 µM | > 100 µM |  | > 100 µM | 
CC(C)(C)[Si](C)(C)OCC1OC(n2ccc(N)nc2=O)C(O[Si](C)(C)C(C)(C)C)C1O[Si](C)(C)C(C)(C)C (configuration not stated) | 9.83 µM | 3.07 µM | 3.64 µM | > 100 µM | 3.58 µM | 3.21 µM |  |  | 6.66 µM | 10.4 µM |  | 4.89 µM | 14.2 µM |  | 4.71 µM | 11.6 µM |  |  | 7.27 µM
CN(CC(=O)O)c1ncc2c(n1)-c1ccccc1SC2 | > 100 µM | > 100 µM | > 100 µM | > 100 µM | > 100 µM | > 100 µM | > 100 µM | > 100 µM | > 100 µM | > 100 µM | > 100 µM | > 100 µM | > 100 µM |  | > 100 µM | > 100 µM | > 100 µM | > 100 µM | > 100 µM
NC1CC(=O)c2c(Br)csc21 (configuration not stated) | > 100 µM | 81.2 µM | 58.7 µM | > 100 µM | > 100 µM | > 100 µM | > 100 µM | > 100 µM | > 100 µM | > 100 µM | > 100 µM | > 100 µM | > 100 µM | > 100 µM |  | > 100 µM | 53.1 µM | 96.7 µM | > 100 µM
CCCCc1c(N(C)C)c(OC(C)=O)c(-c2cn(C)c3ccccc23)oc1=O | > 100 µM | 53 µM | 40.7 µM | 56.3 µM | > 100 µM | > 100 µM | 37.5 µM |  | > 100 µM | 59.8 µM | > 100 µM | 40.7 µM | 86 µM | > 100 µM |  | 40.9 µM | 64 µM | > 100 µM | 88.9 µM
CC1(C)CC(=O)c2[nH]c3ccccc3c2CC(=O)NCCc2cn1cn2 | > 100 µM | > 100 µM | > 100 µM | > 100 µM | > 100 µM | > 100 µM | > 100 µM |  | > 100 µM | > 100 µM | > 100 µM | > 100 µM | > 100 µM | > 100 µM | > 100 µM | > 100 µM | > 100 µM | > 100 µM | > 100 µM
CC(=O)O[C@H]1C[C@H]2[C@@H](OC(C)=O)/C=C3\C[C@](C)(C(=O)[C@H](O)C(=C1C)C2(C)C)[C@@H](O)C[C@@H]3OC(=O)[C@H](O)[C@H](c1ccccc1)N(C)C | > 100 µM | > 100 µM | > 100 µM | > 100 µM | > 100 µM | > 100 µM | > 100 µM | > 100 µM | > 100 µM | > 100 µM | > 100 µM |  | > 100 µM | > 100 µM | > 100 µM | > 100 µM | > 100 µM | > 100 µM | > 100 µM
Cc1c([N+](=O)[O-])ccc2c(NCCCN(C)C)ccnc12 |  | 30.5 µM | 39.4 µM | > 100 µM | 92.5 µM | > 100 µM | 32.1 µM | > 100 µM | > 100 µM | 31.4 µM | > 100 µM | 31.8 µM | > 100 µM | 60.8 µM | 61.5 µM | 35.3 µM | > 100 µM | 80.6 µM | > 100 µM
O=Cc1cn(CCCCCCCCCCCCn2cc(C=O)c3ccccc32)c2ccccc12 | > 100 µM | > 100 µM | > 100 µM | > 100 µM | > 100 µM | > 100 µM |  |  | > 100 µM | > 100 µM | > 100 µM | > 100 µM |  | > 100 µM | > 100 µM | > 100 µM | > 100 µM | > 100 µM | > 100 µM
CCc1cc2c(oc3cc4ccccc4cc32)c(=O)[nH]1 | > 10 µM | > 10 µM |  | > 10 µM | > 10 µM | > 10 µM | > 10 µM |  | > 10 µM | > 10 µM |  | > 10 µM | > 10 µM | > 10 µM | > 10 µM | > 10 µM |  | > 10 µM | > 10 µM
CCCCN(CCCC)CC(O)c1cc(-c2ccc(C(F)(F)F)cc2)nc(-c2ccc(C(F)(F)F)cc2)c1 (configuration not stated) | > 100 µM | > 100 µM | > 100 µM | > 100 µM | > 100 µM | > 100 µM |  | > 100 µM | > 100 µM | > 100 µM | > 100 µM | > 100 µM | > 100 µM |  | > 100 µM | > 100 µM | > 100 µM | > 100 µM | > 100 µM
CCOC(=O)c1c(-c2ccc(OC)cc2)c(C#N)c(=S)n(C2OC(COC(C)=O)C(OC(C)=O)C(OC(C)=O)C2OC(C)=O)c1-c1ccccc1 (configuration not stated) |  | > 100 µM | > 100 µM | > 100 µM | > 100 µM | > 100 µM | > 100 µM | > 100 µM | > 100 µM | > 100 µM | > 100 µM | > 100 µM | > 100 µM | > 100 µM | > 100 µM | > 100 µM | > 100 µM | > 100 µM | > 100 µM
CCCC(=O)n1[nH]c(=O)n(-c2ccc(Cl)cc2)c1=O | > 100 µM | > 100 µM | > 100 µM | > 100 µM | > 100 µM | > 100 µM | > 100 µM | > 100 µM | > 100 µM | > 100 µM | > 100 µM | > 100 µM | > 100 µM | > 100 µM |  | > 100 µM | > 100 µM | > 100 µM | > 100 µM
CC(C)(C)OC(=O)N1CCc2[nH][nH]c(=O)c2C1 | > 100 µM | > 100 µM | > 100 µM | > 100 µM |  |  | > 100 µM | > 100 µM | > 100 µM | > 100 µM | > 100 µM |  |  | > 100 µM | > 100 µM | > 100 µM | > 100 µM | > 100 µM | > 100 µM
CS(=O)(=O)O[C@H]1CN2C[C@@H](O)[C@@H](O)[C@H]2[C@H]1CO | > 100 µM | > 100 µM | > 100 µM | > 100 µM | > 100 µM | > 100 µM | > 100 µM | > 100 µM | > 100 µM | > 100 µM | > 100 µM | > 100 µM |  | > 100 µM |  | > 100 µM | > 100 µM | > 100 µM | > 100 µM
C/C(=N\NC(=S)N1CCCCC1)c1nc2ncccc2[nH]1 | 98.2 µM | > 100 µM | 69.7 µM | > 100 µM | 76.4 µM | > 100 µM | > 100 µM | 30.1 µM | 28.6 µM | 31.9 µM | 19.9 µM | > 100 µM | > 100 µM |  | 43.1 µM | 22.7 µM | > 100 µM | 68.4 µM | > 100 µM
CCCCS(=O)CCC(N)P(=O)(O)O (configuration not stated) | > 100 µM | > 100 µM | > 100 µM | > 100 µM | > 100 µM | > 100 µM | > 100 µM | > 100 µM | > 100 µM | > 100 µM | > 100 µM | > 100 µM | > 100 µM |  | > 100 µM | > 100 µM | > 100 µM | > 100 µM | > 100 µM
COc1cc(/C=C2\C[C@H]3[C@@H]4CCc5cc(O)ccc5[C@H]4CC[C@]3(C)C2=O)cc(OC)c1OC | 23.7 µM | 29.4 µM | 52.2 µM | 39.5 µM | 38.6 µM | 38.7 µM | 38.1 µM | 28.9 µM | 10.7 µM | 34.1 µM | 23.1 µM | 31.9 µM | 26.4 µM | 24.1 µM |  | 28.6 µM | 38.1 µM | 25.1 µM | 24 µM
